Structures are written as SMILES.

One test deals with Rho kinase (ROK, ROCK). The experiment in a line: Rho kinase inhibitory activity (ROK activity). Particulars: assays conducted at 1-100 μM. The class given is biochemical. Also noted: key: +: active; ++: more active; +++: very active.
Take `O=C(Cc1ccc(Cl)cc1)Nc1cncc(-c2ccncc2)c1` [Example 1, N-[3,4′]Bipyridinyl-5-yl-2-(4-chloro-phenyl)-acetamide]: the ROK activity entry is “+”.

As for `Fc1cc(CNc2cccc(-c3ccncc3)c2)ccc1Cl` [Example 2, (4-Chloro-3-fluoro-benzyl)-(3-pyridin-4-yl-phenyl)-amine], the ROK activity result was “+++”.

For `Fc1cc(CNc2cncc(-c3ccncc3F)c2)ccc1Cl` [Example 3, (4-Chloro-3-fluoro-benzyl)-(3′-fluoro-[3,4′]bipyridinyl-5-yl)-amine], the ROK activity result is “+++”.

Turning to `Fc1cc(CNc2cncc(-c3ccnc(Cl)c3)c2)ccc1Cl` [Example 4, (2′-Chloro-[3,4′]bipyridinyl-5-yl)-(4-chloro-3-fluoro-benzyl)-amine], the ROK activity result is reported as “+”.

In the case of `Fc1cc(CNc2cncc(-c3ccncc3Cl)c2)ccc1Cl` [Example 5, (3′-Chloro-[3,4′]bipyridinyl-5-yl)-(4-chloro-3-fluoro-benzyl)-amine], the ROK activity result was “+++”.

Consider `Fc1cc(CNc2cncc(-c3ccnc(Cl)c3Cl)c2)ccc1Cl` [Example 6, (4-Chloro-3-fluoro-benzyl)-(2′,3′-dichloro-[3,4′]bipyridinyl-5-yl)-amine], for which the ROK activity result is reported as “+”.

As for `Fc1cc(CNc2cncc(-c3cccc4ncccc34)c2)ccc1Cl` [Example 7, (4-Chloro-3-fluoro-benzyl)-(5-quinolin-5-yl-pyridin-3-yl)-amine], the ROK activity entry is recorded as “++”.

Consider `Fc1cc(CNc2cncc(-c3ccnc(Cl)c3F)c2)ccc1Cl` [Example 8, (4-Chloro-3-fluoro-benzyl)-(2′-chloro-3′-fluoro-[3,4′]bipyridinyl-5-yl)-amine], for which the ROK activity entry is “+”.

As for `c1ccc(CNc2cncc(-c3ccncc3)c2)cc1` [Example 9, Benzyl-[3,4′]bipyridinyl-5-yl-amine], the ROK activity entry is given as “+++”.

Consider `Clc1cccc(Cl)c1CNc1cncc(-c2ccncc2)c1` [Example 10, [3,4′]Bipyridinyl-5-yl-(2,6-dichloro-benzyl)-amine], for which the ROK activity entry is recorded as “+”.

As for `FC(F)(F)c1cc(Cl)ccc1CNc1cncc(-c2ccncc2)c1` [Example 11, [3,4′]Bipyridinyl-5-yl-(4-chloro-2-trifluoromethyl-benzyl)-amine], the ROK activity entry is given as “++”.

On to `CC(O)CNc1cc(-c2cncc(NCc3ccc(Cl)cc3)c2)ccn1` (centres unmarked) [Example 12, 1-[5-(4-Chloro-benzylamino)-[3,4′]bipyridinyl-2′-ylamino]-propan-2-ol], for which the ROK activity entry is on record as “+”.

For `CC(C)(C)OC(=O)N1CCCC(CNc2cncc(-c3ccncc3)c2)C1` (centres unmarked) [Example 13, 3-([3,4′]Bipyridinyl-5-ylaminomethyl)-piperidine-1-carboxylic acid tert-butyl ester], the ROK activity result is “+”.

For the molecule `CC(C)(C)OC(=O)N1CCC(CNc2cncc(-c3ccncc3)c2)CC1` [Example 14, 4-([3,4′]Bipyridinyl-5-ylaminomethyl)-piperidine-1-carboxylic acid tert-butyl ester], the ROK activity result is “+”.

As to `CC(C)(C)OC(=O)N1CCC(Nc2cncc(-c3ccncc3)c2)CC1` [Example 15, 4-([3,4′]Bipyridinyl-5-ylamino)-piperidine-1-carboxylic acid tert-butyl ester], the ROK activity entry is recorded as “+”.

Consider `c1cc(-c2cncc(NCC3CCCNC3)c2)ccn1` (centres unmarked) [Example 16, [3,4′]Bipyridinyl-5-yl-piperidin-3-ylmethyl-amine], for which the ROK activity result is on record as “++”.

In the case of `FC(F)(F)c1cccc(CNc2cncc(-c3ccncc3)c2)c1` [Example 17, [3,4′]Bipyridinyl-5-yl-(3-trifluoromethyl-benzyl)-amine], the ROK activity result is “++”.

Take `FC(F)(F)c1ccc(CNc2cncc(-c3ccncc3)c2)cc1` [Example 18, [3,4′]Bipyridinyl-5-yl-(4-trifluoromethyl-benzyl)-amine]: the ROK activity entry was “+++”.

Take `Fc1cc(Cl)ccc1CNc1cncc(-c2ccncc2)c1` [Example 19, [3,4′]Bipyridinyl-5-yl-(4-chloro-2-fluoro-benzyl)-amine]: the ROK activity entry is listed as “+++”.

In the case of `O=C(Nc1cncc(-c2ccncc2)c1)c1ccc(Cl)cc1` [Example 20, N-[3,4′]Bipyridinyl-5-yl-4-chloro-benzamide], the ROK activity result was “+”.

Take `O=S(=O)(Nc1cncc(-c2ccncc2)c1)c1ccc(Cl)cc1` [Example 21, N-[3,4′]Bipyridinyl-5-yl-4-chloro-benzenesulfonamide]: the ROK activity entry is “+”.

In the case of `Fc1ccc(CNc2cncc(-c3ccncc3)c2)c(F)c1` [Example 22, [3,4′]Bipyridinyl-5-yl-(2,4-difluoro-benzyl)-amine], the ROK activity result is given as “+++”.

Staying with this test, now noted: assays conducted at 1-100 μM, listed as N-[3,4′]Bipyridinyl-5-yl-2-(4-chloro-phenyl)-acetamide.
Consider `O=C(Cc1ccc(Cl)cc1)Nc1cncc(-c2ccncc2)c1` [Example 1, N-[3,4′]Bipyridinyl-5-yl-2-(4-chloro-phenyl)-acetamide], for which the ROK activity result is reported as “++”.

Values taken from patent US20080194584A1, “Nitrogen Heteroaromatic Compounds Which Bind To The Active Site Of Protein Kinase Enzymes” (priority 2004, published 2008).
